Assay results taken from publication PMC10352257, “In vivo effects of the alpha-synuclein misfolding inhibitor minzasolmin supports clinical development in Parkinson’s disease” (NPJ Parkinson's Disease, 2023).
“Also recorded” adds a separate entry of the source. Where two headings read alike, the source gives them in different places.

Experiments:
[1] = test system: proteinase K-resistant ASYN; assay: Immunohistochemical evaluation of proteinase K-resistant ASYN in brain sections, 3-month study; format: in vivo, mouse; conditions: for change in proteinase K-resistant ASYN immunolabeling vs vehicle-treated transgenic mice: striatum (P < 0.0001); for proteinase K-resistant ASYN immunolabeling, mean: Line 61 tg, 3 months, adjusted P <0.0001
Excerpt: (§1) A transgenic mouse model of Parkinson’s disease overexpressing human wild-type ASYN under the murine Thy-1 promoter on a mixed C57Bl/6 background was used in the present studies (commonly referred to Line 61)[49]. The Line 61 transgenic mouse model of Parkinson’s disease develops extensive accumulation of ASYN in areas relevant to Parkinson’s disease[49]–[51], neurodegeneration (as evidenced by loss of tyrosine hydroxylase[52],[53] and dopamine transporter immunoreactivity[18] in the striatum), inflammation, and both motor and non-motor functional deficits. Multiple cohorts of mice were transferred from the University of California, San Diego to a Neuropore-funded AAALAC-accredited vivarium facility per a laboratory service agreement between Neuropore Therapies, Inc. and the laboratory of Dr. Eliezer Masliah under institutional animal care and use committee (IACUC) Protocol S02221. All in vivo testing was conducted by Neuropore personnel under Explora Biosciences animal care and use protocol (ACUP) number E15-016-2. Three-month-old male transgenic and age-matched non-transgenic littermate control mice were used and housed up to 5 per cage. Animals received free access to food and water prior to the experiment. The vivarium ambient room temperature was monitored daily and kept within a range of 68–72 degrees Fahrenheit. Animals were kept on a 12:12 diurnal light cycle, with lights on at 0600.
(§2) Minzasolmin was dissolved in a vehicle solution consisting of 40% Captisol (CyDex Pharmaceuticals, Inc.; Kansas, USA) in sterile water and administered at a volume of 0.1 ml/20 g of body weight. Animals received a Monday–Friday daily intraperitoneal injection of vehicle, or 1 or 5 mg/kg minzasolmin for approximately 90 days. Animals received treatment up to and including a final injection 1 h prior to euthanasia. All study solutions were blind coded and experimenters were blinded to genotype and treatment group assignments for the duration of the study, ex vivo evaluations (i.e., neuropathology sample processing and imaging, videotape scoring) and through penultimate data analyses (i.e., data quality control with documented exclusions prior to unblinding; unblinding required for a priori pairwise comparisons).
(§3) All subjects were euthanized within 1 h of the last treatment and brain and blood were collected. Tissue processing and imaging methods were conducted as described previously[17],[18],[52] and performed under a lab service agreement between UCSD and Neuropore Therapies. All samples were blind coded to genotype and treatment group throughout immune-histological processing and imaging. The right hemibrain was post-fixed in phosphate-buffered 4% paraformaldehyde (pH 7.4) at 4 °C for 48 and then serially sectioned into […] thick […] sections using a vibratome. Sections were free-floated and incubated overnight at 4 °C with primary antibodies. To confirm the specificity of primary antibodies, control experiments were performed in which sections were incubated overnight in the absence of primary antibody, pre-immune serum, or primary antibody pre-adsorbed for 48 h with 20-fold excess of the corresponding peptide. Tissue collection, processing, and imaging methods were conducted as described previously. Briefly, the right hemibrain was post-fixed in phosphate-buffered 4% paraformaldehyde (pH 7.4) at 4 °C for 48 h, and then serially sectioned into 40 µm thick coronal sections using a vibratome. Sections were free-floated and incubated overnight at 4 °C with primary antibodies. To confirm the specificity of primary antibodies, control experiments were performed in which sections were incubated overnight in the absence of primary antibody (data not shown). Immunolabeled sections were imaged with a Zeiss 63× (N.A. 1.4) objective on an Axiovert 35 microscope (Zeiss, Germany). Immunolabeling was evaluated as a corrected optical density across a field of view. […]

[2] = test system: dopamine transporter (DAT); assay: Immunolabeling of striatal dopamine transporter (DAT), 3-month study; format: in vivo, mouse; conditions: for DAT immunolabeling in dorsal striatum, mean: 3 months
Excerpt: as §1, §2
as §3, with “Briefly, the right hemibrain was post-fixed in phosphate-buffered 4% paraformaldehyde (pH 7.4) at 4 °C for 48 h, and then serially sectioned into 40 µm thick coronal sections using a vibratome. Sections were free-floated and incubated overnight at 4 °C with primary antibodies. To confirm the specificity of primary antibodies, control experiments were performed in which sections were incubated overnight in the absence of primary antibody (data not shown). Immunolabeled sections were imaged with a Zeiss 63× (N.A. 1.4) objective on an Axiovert 35 microscope (Zeiss, Germany).” left out

[3] = Bioanalysis of compound levels in plasma and brain after long-term treatment; format: in vivo; conditions: mouse, ip, Line 61 transgenic mice, 1 h post final dose, mean ± S.E.M.
Method: as §2
All subjects were euthanized within 1 h of the last treatment and brain and blood were collected. Tissue processing and imaging methods were conducted as described previously[17],[18],[52] and performed under a lab service agreement between UCSD and Neuropore Therapies. All samples were blind coded to genotype and treatment group throughout immune-histological processing and imaging. The right hemibrain was post-fixed in phosphate-buffered 4% paraformaldehyde (pH 7.4) at 4 °C for 48 and then serially sectioned into […] thick sagittal sections using a vibratome. Sections were free-floated and incubated overnight at 4 °C with primary antibodies. To confirm the specificity of primary antibodies, control experiments were performed in which sections were incubated overnight in the absence of primary antibody, pre-immune serum, or primary antibody pre-adsorbed for 48 h with 20-fold excess of the corresponding peptide. Tissue collection, processing, and imaging methods were conducted as described previously. Briefly, the right hemibrain was post-fixed in phosphate-buffered 4% paraformaldehyde (pH 7.4) at 4 °C for 48 h, and then serially sectioned into 40 µm thick coronal sections using a vibratome. Sections were free-floated and incubated overnight at 4 °C with primary antibodies. To confirm the specificity of primary antibodies, control experiments were performed in which sections were incubated overnight in the absence of primary antibody (data not shown). Immunolabeled sections were imaged with a Zeiss 63× (N.A. 1.4) objective on an Axiovert 35 microscope (Zeiss, Germany). Immunolabeling was evaluated as a corrected optical density across a field of view. Summary tables of statistics for each measure are presented in Supplementary Tables 1–5.
Analysis of minzasolmin by HPLC-MS/MS in plasma and brain homogenate study subject samples was conducted by PRA Health Sciences (Lenexa, KS, USA). Group means were obtained using Graph Pad Prism v. […]

CCCC[C@H](Cc1c[nH]c2ccccc12)NC(=O)c1cnc(N2CCN(C)CC2)s1 [minzasolmin]
change in proteinase K-resistant ASYN immunolabeling vs vehicle-treated transgenic mice ([1]; 1 mg/kg, cortex, hippocampus): statistically significant reductions; also recorded: statistically significant decreases
change in proteinase K-resistant ASYN immunolabeling vs vehicle-treated transgenic mice ([1]; 5 mg/kg, cortex, hippocampus): statistically significant reductions; also recorded: statistically significant decreases
effect of dose on proteinase K-resistant ASYN, 1 vs. 5 mg/kg ([1]; any examined region): no statistically significant effects
proteinase K-resistant ASYN immunolabeling, mean ([1]; cortex, 1 mg/kg, Line 61 tg/Vehicle 242.5): 180.6
proteinase K-resistant ASYN immunolabeling, mean ([1]; cortex, 5 mg/kg, Line 61 tg/Vehicle 242.5): 187.3
proteinase K-resistant ASYN immunolabeling, mean ([1]; hippocampus, 1 mg/kg, Line 61 tg/Vehicle 270.1): 176.6
proteinase K-resistant ASYN immunolabeling, mean ([1]; hippocampus, 5 mg/kg, Line 61 tg/Vehicle 270.1): 178.3
proteinase K-resistant ASYN immunolabeling, mean ([1]; striatum, 1 mg/kg, Line 61 tg/Vehicle 266.7): 176.1
proteinase K-resistant ASYN immunolabeling, mean ([1]; striatum, 5 mg/kg, Line 61 tg/Vehicle 266.7): 182.2
change in striatal DAT immunolabeling vs vehicle-treated ASYN transgenic controls ([2]; 1 mg/kg, P < 0.05): statistically significant increases; also recorded: statistically significant normalizations
change in striatal DAT immunolabeling vs vehicle-treated ASYN transgenic controls ([2]; 5 mg/kg, P < 0.0001): statistically significant increases; also recorded: statistically significant normalizations
DAT immunolabeling in dorsal striatum, mean ([2]; Line 61 tg/1 mg/kg (first group of that name), Line 61 tg/Vehicle 211.2, Non-tg/Vehicle 292.1, adjusted P 0.0117): 255.3
DAT immunolabeling in dorsal striatum, mean ([2]; Line 61 tg/1 mg/kg as printed (second group of that name), Line 61 tg/Vehicle 211.2, adjusted P <0.0001): 280.1
dose effect on striatal DAT levels, 5 mg/kg compared to 1 mg/kg (towards a greater increase) ([2]; P = 0.0754, unpaired two tailed t test): statistical trend
concentration at 1 h ([3]; brain, 1 mg/kg i.p. daily about 90 days, read-out: [minzasolmin] Brain): 12.1 ± 1.5 ng/g
concentration at 1 h ([3]; brain, 5 mg/kg i.p. daily about 90 days, read-out: [minzasolmin] Brain): 69.5 ± 4.7 ng/g
concentration at 1 h ([3]; plasma, 1 mg/kg i.p. daily about 90 days, read-out: [minzasolmin] Plasma): 72.3 ± 7.9 ng/mL
concentration at 1 h ([3]; plasma, 5 mg/kg i.p. daily about 90 days, read-out: [minzasolmin] Plasma): 357 ± 16.8 ng/mL
